The results in this text go back to patent US20230192701A1, “BICYCLIC KINASE INHIBITORS AND USES THEREOF” (iOmx Therapeutics AG, priority 2020, published 2023).

Data set [1] is described as follows: Murine plasma protein binding (RED method). As to conditions: mouse. The data set is classed as in vitro ADME. As to the method: Human and mice protein plasma binding was determined using the Plasma Protein Binding by RED Method. Briefly, 200 uL of the respective plasma containing the test compound (10 uM) was spiked into the donor well (RED Chamber) of the insert. 350 uL of PBS was spiked into receiver well (white chamber). The plate was incubated at 37° C. in a thermomixer at 400 rpm for 5 hours. The samples were matrix equilibrated with opposite matrix (25 uL blank buffet/Plasma). Matrix matched samples were precipitated with 200 uL of Acetonitrile containing Internal standard. Samples were vortexed at 1000 rpm for 5 min and centrifuged at 4000 rpm for 10 min. The supernatant was diluted 2 folds with water and % bound and unbound protein and % recovery at 5 h was determined by LC-MS/MS.
(§1) LC-MS/MS was performed for all assays using a C18 column (50*4.6 mm, 5 um) for the CaCo2 assay, or a C18 column (50*4.6 mm, 4 um) for the other assays. The mobile phases used were 10 mM Ammonium Acetate with 0.1% Formic acid (aqueous) and 100% Acetonitrile (organic).

Data set [2] can be described thus: Mouse liver microsomal stability. The data set is classed as in vitro ADME. As to conditions: pH 7.4; mouse liver microsomes, NADPH, 37°C. As to the method: (§2) Briefly, human and liver microsomal stability was determined by pre-incubation of 2.5 uL compound and 75 uL of the respective liver microsomes in potassium phosphate buffer (pH 7.4) at 37° C. After adding of NADPH as cofactor and further incubation at 37° C. for 60 min, acetonitrile containing internal standard was added, and the sample was vortexed for 5 min at 1200 rpm and then centrifuged 10 min at 4000 rpm.
as §1

The target in data set [3] is SIK3 (Homo sapiens, UniProt Q9Y2K2). The data set is described as follows: radiometric protein kinase assay (33PanQinase Activity Assay), SIK3. The data set is classed as biochemical. As to conditions: ATP 1.0 μM, substrate RBER-CHKtide.
Data set [4] can be described thus: pharmacokinetic study, plasma level after single po or iv administration. The data set is classed as in vivo, male CD1 mice. As to conditions: mice. As to the method: Screening PK properties of compounds of Formula (I) are additionally determined, including plasma and free plasma concentration, as well as Cmax. For example, the free concentration of compound after a dose of eg 30 mg/kg po (per os) administered mice can be determined for certain time points after administrations.
To further investigate PK properties of kinase inhibitors of Formula (I), the compounds are tested for in vivo drug exposure and potency in a full pharmacokinetic study with oral administration (per os, po).
The experimental procedure and the determination of the pharmacokinetic parameters are investigated after single administration of each compound per gavage in male CD1 mice (Intonation Research Laboratories (Hyderabad, India)). The compounds are diluted in 5% DMSO+5% Solutol+90% water. Plasma level (eg sampling 0.25 h; 0.5 h; 1 h; 1.5 h; 2 h; 4 h; 6 h; 12 h; 24 h after drug administration) of the compounds are analysed by LC-MS/MS and pharmacokinetic parameters are determined using non-compartmental analysis and nominal dose levels of eg 30 mg/kg po and 1 mg/kg iv. Three animals are analysed per time point and each mouse is used for three plasma samplings in total.

Data set [5] addresses SIK2 (Homo sapiens, UniProt Q9H0K1). The data set is described as follows: radiometric protein kinase assay (33PanQinase Activity Assay), SIK2. The data set is classed as biochemical. As to conditions: ATP 1.0 μM, substrate RBER-CHKtide.
Data set [6] is described as follows: Human liver microsomal stability. As to conditions: pH 7.4; human liver microsomes, NADPH, 37°C. The data set is classed as in vitro ADME. As to the method:
as §2, §1
(In general: Microsomes from liver hold many membrane-bound enzymes, among them those of drug oxidation.)

The nature of data set [7]: Human hepatocyte stability. As to conditions: human hepatocytes, 37°C. The data set is classed as in vitro ADME. As to the method: Determination of human and mice hepatocyte stability was conducted as follows. 200 uL of the respective hepatocyte cell suspension (2×10e6/ml) was preincubated at 37° C. for 10 min. Then, 200 uL of a 2 uM working stock of the test compound was added to the hepatocyte cell suspension, and the mixture was further incubated at 37° C. and 500 rpm. The reaction was stopped at 30, 60 and 120 min by precipitating 50 uL of the incubation mixture with 200 uL of acetonitrile. Samples were vortexed for 5 min at 1200 rpm and centrifuged at 4000 rpm for 10 min. Intrinsic clearance and half-life were analysed using LC-MS/MS.
as §1

Sequence of SIK2 (Q9H0K1 whole entry): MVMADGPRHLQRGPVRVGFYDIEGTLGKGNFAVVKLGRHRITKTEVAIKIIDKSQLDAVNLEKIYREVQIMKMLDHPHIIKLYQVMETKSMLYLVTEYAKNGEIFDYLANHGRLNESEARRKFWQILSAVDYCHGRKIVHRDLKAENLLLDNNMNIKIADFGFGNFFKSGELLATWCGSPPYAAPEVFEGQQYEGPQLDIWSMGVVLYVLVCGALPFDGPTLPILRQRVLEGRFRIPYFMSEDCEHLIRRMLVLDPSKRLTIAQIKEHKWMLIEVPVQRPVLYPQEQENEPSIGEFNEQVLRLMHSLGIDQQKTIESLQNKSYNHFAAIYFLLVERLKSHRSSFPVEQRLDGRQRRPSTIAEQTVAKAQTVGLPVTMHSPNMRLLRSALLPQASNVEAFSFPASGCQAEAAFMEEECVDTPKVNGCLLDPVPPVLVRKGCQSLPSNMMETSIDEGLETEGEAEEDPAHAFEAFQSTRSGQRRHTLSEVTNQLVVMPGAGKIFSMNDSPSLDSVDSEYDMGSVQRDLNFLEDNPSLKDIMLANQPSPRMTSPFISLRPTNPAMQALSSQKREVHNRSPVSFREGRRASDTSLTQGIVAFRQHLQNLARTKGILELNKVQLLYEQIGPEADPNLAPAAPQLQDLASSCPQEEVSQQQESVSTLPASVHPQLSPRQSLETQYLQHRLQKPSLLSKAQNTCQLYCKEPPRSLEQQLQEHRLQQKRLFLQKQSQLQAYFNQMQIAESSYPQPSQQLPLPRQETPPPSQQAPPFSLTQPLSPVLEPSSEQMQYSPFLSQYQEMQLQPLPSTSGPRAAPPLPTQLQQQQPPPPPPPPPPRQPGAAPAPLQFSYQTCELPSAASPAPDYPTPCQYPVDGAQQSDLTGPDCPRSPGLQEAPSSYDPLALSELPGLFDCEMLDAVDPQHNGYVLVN
Sequence of SIK3 (Q9Y2K2 whole entry): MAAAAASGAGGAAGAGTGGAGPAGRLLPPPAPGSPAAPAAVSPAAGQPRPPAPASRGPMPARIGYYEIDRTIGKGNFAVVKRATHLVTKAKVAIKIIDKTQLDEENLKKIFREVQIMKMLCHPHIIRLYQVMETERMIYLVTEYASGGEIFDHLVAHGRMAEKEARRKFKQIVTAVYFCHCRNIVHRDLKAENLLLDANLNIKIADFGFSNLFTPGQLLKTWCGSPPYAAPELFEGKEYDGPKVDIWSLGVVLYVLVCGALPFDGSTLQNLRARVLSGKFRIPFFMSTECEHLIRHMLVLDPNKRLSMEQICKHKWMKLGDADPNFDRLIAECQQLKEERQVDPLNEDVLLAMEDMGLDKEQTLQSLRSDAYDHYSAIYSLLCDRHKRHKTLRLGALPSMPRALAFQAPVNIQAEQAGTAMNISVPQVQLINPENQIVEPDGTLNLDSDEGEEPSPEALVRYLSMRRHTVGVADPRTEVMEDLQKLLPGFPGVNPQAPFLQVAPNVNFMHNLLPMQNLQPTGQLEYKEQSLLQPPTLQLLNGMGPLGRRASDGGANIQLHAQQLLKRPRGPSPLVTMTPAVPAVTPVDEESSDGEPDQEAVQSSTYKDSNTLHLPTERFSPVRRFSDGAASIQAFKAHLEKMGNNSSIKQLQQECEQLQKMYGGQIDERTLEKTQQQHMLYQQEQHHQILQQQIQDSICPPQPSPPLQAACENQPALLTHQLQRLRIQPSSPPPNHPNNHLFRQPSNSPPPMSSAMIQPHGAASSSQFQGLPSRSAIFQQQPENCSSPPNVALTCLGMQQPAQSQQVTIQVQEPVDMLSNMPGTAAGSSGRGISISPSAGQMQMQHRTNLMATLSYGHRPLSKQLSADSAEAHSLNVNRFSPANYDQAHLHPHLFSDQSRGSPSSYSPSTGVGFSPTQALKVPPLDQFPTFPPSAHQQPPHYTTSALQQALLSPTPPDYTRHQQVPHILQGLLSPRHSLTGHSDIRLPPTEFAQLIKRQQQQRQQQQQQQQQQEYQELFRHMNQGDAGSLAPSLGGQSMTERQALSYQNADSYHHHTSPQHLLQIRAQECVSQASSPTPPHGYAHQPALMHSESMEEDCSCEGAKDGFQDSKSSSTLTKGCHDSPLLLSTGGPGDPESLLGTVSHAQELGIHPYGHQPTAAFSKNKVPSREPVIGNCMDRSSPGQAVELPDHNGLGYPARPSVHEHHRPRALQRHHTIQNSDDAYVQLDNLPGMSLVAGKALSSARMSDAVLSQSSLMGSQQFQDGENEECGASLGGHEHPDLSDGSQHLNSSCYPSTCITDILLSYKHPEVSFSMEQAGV

Turning to `COc1ccc(N2C(=O)N(c3c(C)csc3Cl)Cc3cnc(Nc4ccc(C5CCN(C)CC5)cc4OC)nc32)nc1` [AA1, 3-(2-chloro-4-methylthiophen-3-yl)-7-((2-methoxy-4-(1-methylpiperidin-4-yl)phenyl)amino)-l-(5-methoxypyridin-2-yl)-3,4-dihydropyrimido[4,5-d]pyrimidin-2(1H)-one], in data set [1], the recovery at 5 h, 10 uM came to 40%. For the same compound, the values for the half-life in data set [2] and in data set [6] were 45 min and 18 min, respectively. For the same compound, the IC50 fell in the range of 200 to 400 nM in data set [3] and 100 to 200 nM in data set [5]. Moreover, the “compound detectable in plasma after 24 h” value in data set [4] (1 mg/kg iv) and in data set [4] (30 mg/kg po) was “detectable after 24 hours” throughout. In addition, in data set [7], the half-life at 1 uM amounted to 658 min.

The term half-life denotes how long it takes for the measured level to halve. Higher therefore signals slow decline. In general, IC50 refers to the concentration that inhibits the measured activity by half.
